Among the data in ChEMBL document CHEMBL4261593, “Synthesis and antibacterial activity of novel 3-O-arylalkylcarbamoyl-3-O-descladinosyl-9-O-(2-chlorobenzyl)oxime clarithromycin derivatives” (2018) are MIC and Ratio values, retold here.

≈ marks a conversion by molar mass, not a printed value.

What all share (type): functional
Experiment [1] concerns Streptococcus pyogenes. The experiment in a line: Antibacterial activity against erythromycin-susceptible Streptococcus pyogenes 1 after 24 hrs by broth dilution assay. The note with it: Streptococcus pyogenes, 1, 24 h. (In general: Broth dilution looks for growth in wells or tubes with falling amounts of substance.)
Experiment [2] has as its system Staphylococcus aureus. Description: Antibacterial activity against erythromycin-susceptible Staphylococcus aureus ATCC 25923 after 24 hrs by broth dilution assay. The note with it: ATCC 25923, 24 h.
The next experiment relates to Escherichia coli. The experiment in a line: Antibacterial activity against penicillin-susceptible Escherichia coli ATCC 25922 after 24 hrs by broth dilution assay. The following applies: ATCC 25922, 24 h.
For a further experiment, the system named is Pseudomonas aeruginosa. Description: Antibacterial activity against penicillin-susceptible Pseudomonas aeruginosa ATCC 27853 after 24 hrs by broth dilution assay. The note with it: ATCC 27853, 24 h.
The subject of a further experiment is Bacillus subtilis. Description: Antibacterial activity against penicillin-susceptible Bacillus subtilis ATCC 9372 after 24 hrs by broth dilution assay. The note with it: ATCC 9372, 24 h.
The subject of experiment [3] is Staphylococcus aureus. The experiment in a line: Antibacterial activity against […] Staphylococcus aureus ATCC 29213 after 24 hrs by broth dilution assay. The following applies: ATCC 29213, 24 h.
Experiment [4] deals with Staphylococcus aureus. The experiment in a line: Antibacterial activity against penicillin-resistant Staphylococcus aureus ATCC 31007 after 24 hrs by broth dilution assay. The note with it: ATCC 31007, 24 h.
In experiment [5] the test system is Streptococcus pyogenes. The experiment in a line: Antibacterial activity against erythromycin-resistant Streptococcus pyogenes 2 after 24 hrs by broth dilution assay. The note with it: Streptococcus pyogenes, 2, 24 h.
The test system of experiment [6] is Streptococcus pneumoniae. Description: Antibacterial activity against erythromycin-resistant Streptococcus pneumoniae A22072 expressing mefA gene after 24 hrs by broth dilution assay. The following applies: A22072, 24 h.
In experiment [7] the test system is Streptococcus pneumoniae. The experiment in a line: Antibacterial activity against erythromycin-resistant Streptococcus pneumoniae B1 expressing ermB gene after 24 hrs by broth dilution assay. The following applies: B1, 24 h.
Experiment [8] concerns Streptococcus pneumoniae. Description: Antibacterial activity against erythromycin-resistant Streptococcus pneumoniae AB11 expressing ermB and mefA genes after 24 hrs by broth dilution assay. The following applies: AB11, 24 h.
Experiment [9] deals with Streptococcus pneumoniae. The experiment in a line: Potency index, ratio of CAM MIC to compound MIC for antibacterial activity against erythromycin-resistant Streptococcus pneumoniae A22072.
In experiment [10] the test system is Streptococcus pneumoniae. The experiment in a line: Potency index, ratio of AZM MIC to compound MIC for antibacterial activity against erythromycin-resistant Streptococcus pneumoniae A22072.
The test system of experiment [11] is Streptococcus pyogenes. Description: Potency index, ratio of CAM MIC to compound MIC for antibacterial activity against erythromycin-resistant Streptococcus pyogenes 2.
The subject of experiment [12] is Streptococcus pyogenes. The experiment in a line: Potency index, ratio of AZM MIC to compound MIC for antibacterial activity against erythromycin-resistant Streptococcus pyogenes 2.
For experiment [13], the system named is Staphylococcus aureus. The experiment in a line: Potency index, ratio of CAM MIC to compound MIC for antibacterial activity against penicillin-resistant Staphylococcus aureus ATCC 31007.
Experiment [14] has as its system Staphylococcus aureus. Description: Potency index, ratio of AZM MIC to compound MIC for antibacterial activity against penicillin-resistant Staphylococcus aureus ATCC 31007.

What is called MIC is the smallest concentration in the dilution series that meets the test's criterion for growth inhibition.

In the case of `CC[C@H]1OC(=O)[C@H](C)[C@@H](OC(=O)NC2CC2)[C@H](C)[C@@H](O[C@@H]2O[C@H](C)C[C@H](N(C)C)[C@H]2O)[C@](C)(OC)C[C@@H](C)/C(=N/OCc2ccccc2Cl)[C@H](C)[C@@H](O)[C@]1(C)O`, the MIC against Streptococcus pyogenes [1] is 1 µg/mL (≈ 1.23 µM); against Staphylococcus aureus [2] it was 8 µg/mL (≈ 9.85 µM); against Escherichia coli it was 128 µg/mL (≈ 158 µM); in the experiment with Pseudomonas aeruginosa it was 128 µg/mL (≈ 158 µM); against Bacillus subtilis, 4 µg/mL (≈ 4.92 µM); against Staphylococcus aureus [3], 128 µg/mL (≈ 158 µM). Further, the MIC is 16 µg/mL (≈ 19.7 µM) against Staphylococcus aureus [4]; 16 µg/mL (≈ 19.7 µM) with Streptococcus pyogenes [5]; 0.125 µg/mL (≈ 0.154 µM) with Streptococcus pneumoniae [6]; 128 µg/mL (≈ 158 µM) in the experiment with Streptococcus pneumoniae [7]; 128 µg/mL (≈ 158 µM) in the experiment on Streptococcus pneumoniae [8]. Moreover, the Ratio in the experiment on Streptococcus pneumoniae [9] worked out at 16; with Streptococcus pneumoniae [10] it was 32.

For `CCCNC(=O)O[C@H]1[C@H](C)[C@@H](O[C@@H]2O[C@H](C)C[C@H](N(C)C)[C@H]2O)[C@](C)(OC)C[C@@H](C)/C(=N/OCc2ccccc2Cl)[C@H](C)[C@@H](O)[C@](C)(O)[C@@H](CC)OC(=O)[C@@H]1C`, the MIC turned out to be 1 µg/mL (≈ 1.23 µM) against Streptococcus pyogenes [1]; 8 µg/mL (≈ 9.82 µM) against Staphylococcus aureus [2]; 128 µg/mL (≈ 157 µM) in the experiment with Escherichia coli; 128 µg/mL (≈ 157 µM) in the experiment on Pseudomonas aeruginosa; 2 µg/mL (≈ 2.46 µM) against Bacillus subtilis; 128 µg/mL (≈ 157 µM) with Staphylococcus aureus [3]. Besides, the minimal inhibitory concentration (MIC) was determined as 16 µg/mL (≈ 19.6 µM) against Staphylococcus aureus [4]; 8 µg/mL (≈ 9.82 µM) in the experiment on Streptococcus pyogenes [5]; 0.125 µg/mL (≈ 0.153 µM) against Streptococcus pneumoniae [6]; 128 µg/mL (≈ 157 µM) in the experiment with Streptococcus pneumoniae [7]; 128 µg/mL (≈ 157 µM) in the experiment on Streptococcus pneumoniae [8]. Besides, the Ratio is 16 in the experiment with Streptococcus pneumoniae [9], 32 in the experiment on Streptococcus pneumoniae [10], 32 in the experiment with Streptococcus pyogenes [11] and 32 in the experiment with Streptococcus pyogenes [12].

Take `CC[C@H]1OC(=O)[C@H](C)[C@@H](OC(=O)NCc2cccc(F)c2)[C@H](C)[C@@H](O[C@@H]2O[C@H](C)C[C@H](N(C)C)[C@H]2O)[C@](C)(OC)C[C@@H](C)/C(=N/OCc2ccccc2Cl)[C@H](C)[C@@H](O)[C@]1(C)O`: the MIC with Streptococcus pyogenes [1] worked out at 1 µg/mL (≈ 1.14 µM); in the experiment on Staphylococcus aureus [2], 4 µg/mL (≈ 4.54 µM); in the experiment on Escherichia coli, 128 µg/mL (≈ 145 µM); with Pseudomonas aeruginosa it was 128 µg/mL (≈ 145 µM); against Bacillus subtilis, 2 µg/mL (≈ 2.27 µM); in the experiment on Staphylococcus aureus [3], 128 µg/mL (≈ 145 µM). Further, the MIC against Staphylococcus aureus [4] is 4 µg/mL (≈ 4.54 µM); against Streptococcus pyogenes [5], 8 µg/mL (≈ 9.09 µM); against Streptococcus pneumoniae [6] it was 0.5 µg/mL (≈ 0.568 µM); against Streptococcus pneumoniae [7], 128 µg/mL (≈ 145 µM); against Streptococcus pneumoniae [8] it was 128 µg/mL (≈ 145 µM). Moreover, the Ratio in the experiment with Staphylococcus aureus [13] worked out at 64; in the experiment with Staphylococcus aureus [14], 64; with Streptococcus pyogenes [11] it was 32; in the experiment on Streptococcus pyogenes [12] it was 32.
